Like-named read-outs stand apart in the source and are kept apart here.
Key:
[1] = SEC-MALS oligomeric state of FtsA in solution; type: physicochemical
Method: Light scattering was recorded on a miniDAWN light scattering device (Wyatt). Changes in the refractive index were used to define the peak area, which was used to obtain the molecular mass. The analysis of the data was performed with the ASTRA software (Wyatt).

FtsZ [2] = details: His-tagged FtsA
Method: (§1) Co-treadmilling of FtsA with FtsZ relies on the dynamic exchange of FtsA on the membrane. […] To investigate the respective contributions of membrane binding kinetics and FtsA self-interaction on the colocalization dynamics with FtsZ, we wanted to create variants of the two FtsA proteins that are permanently attached to the membrane. […] Accordingly, in these experiments the proteins only differ in their tendency to form oligomers.
(§2) To study colocalization of His-tagged variants of FtsA, 0.5–1 µM of Cy5 labelled His-tagged FtsAs were added to the chamber, incubated for 20 min and washed 6x with reaction buffer. […] To control the density of membrane-bound FtsA, SUVs without and with Tris-NTA lipids were mixed to obtain the respective Tris-NTA concentrations. To perform FRET/FRAP experiments, equimolar concentrations of Cy3 and Cy5 labelled His-tagged FtsAs (total 0.5–1 µM) or His-SUMO-Cys were added to a chamber and treated as above. […] FRAP experiments were performed as described before.
Time-lapse videos were first intensity-corrected and contrast-enhanced to avoid bleaching effects and simplify subsequent analysis. To remove contributions of X–Y drift, the videos were processed with the Linear Stack Alignment with SIFT plugin. Proper alignment was checked with the 3TP align plugin (J. A. Parker; Beth Israel Deaconess Medical Center, Boston). Subsequently, regions of interest (ROIs) in the center of the stacks were chosen for colocalization analysis. The Pearson’s correlation coefficient (PCC) was quantified with the Image CorrelationJ 1o plugin. To extract information about the relative ratio of FtsZ/FtsA molecules (slope of linear regression), we also used the Image CorrelationJ 1o plugin. As an output, the plugin provides a scatterplot of FtsZ vs FtsA intensities, to which we fitted a linear slope y=k⋅x+d , where k is the slope and d the offset. The slope was used as an estimate for the ratio of FtsA molecules below FtsZ filaments.

FtsZ [3] = details: His-tagged FtsA; remark: listed apart in the source
Method: as §1, §2
Treadmilling dynamics, were quantified using an automated image analysis protocol previously developed by our group. To visualize colocalization of the co-treadmilling FtsZ & FtsA filaments, we used dual-colour videos obtained at an acquisition rate of one frame per 2 s. The two channels were aligned using FIJI’s 3TP align plugin. Both channels were then subjected to the image subtraction protocol and colocalization was measured as described above.

[4] = Membrane off-binding rate (koff) of FtsA from FRAP
Source text: We could also use the data from these bleaching experiments to quantify the membrane-binding kinetics and diffusion of membrane-bound proteins by analysing the change of the fluorescence profile during recovery.
Equimolar concentrations of Cy3- and Cy5-labelled FtsA, supplemented with 20% unlabelled FtsA were used to study FRET and FRAP. Five pre-bleach frames were acquired, followed by acceptor photobleaching of a rectangular ROI with 40% 641 nm laser power and a dwell size of 1 µs/pixel, 75% overlapping lines. The recovery of the signal or the increase in donor intensity were measured with either two frames or one frame per second.
Bleaching the acceptor dye leads to an increase in the donor intensity, which can be used to quantify the Foerster Resonance energy transfer (FRET)[48]. FRET efficiency was quantified with E%=Ipost/Ipost+Ipre⋅100 , where Ipost is the intensity of the […] and Ipre is the […]. […] To extract the contribution of both processes, we adjusted a routine recently published by Gerganova et al.[33]. In short, the code provides the contribution of both modes of recovery by analysing the shape of the fluorescence recovery profile. […] Contribution of diffusion leads to a change of the slope of the outer borders of the bleached region (S4h right). Thus, by measuring the change of the slope of the border recovery, diffusion and simple on/off binding can be distinguished. We developed “FRAPdiff”, a graphical user interface, which uses the original fit routine by David Rutkowski. It can be used directly on.tiff movies with annotated bleach regions as ImageJ ROIs. In addition, we added optional bleach correction, user selectable projection axis (x or y), and optional mirroring of the recovery profiles, if bleaching was not symmetric. The original fit routine for estimating the recovery and diffusion dynamics can be found at https://github.com/davidmrutkowski/1DReflectingDiffusion. FRAPdiff is available at 10.5281/zenodo.6400639[49] under the GPLv3 open-source license.

[5] = 0.60% Tris NTA, Exp. 1 (statistical analysis)
[6] = 0.60% Tris NTA, Exp. 2 (statistical analysis)
[7] = 0.80% Tris NTA, Exp. 1 (statistical analysis)
[8] = 0.80% Tris NTA, Exp. 3 (statistical analysis)
[9] = 1.00% Tris NTA, Exp. 1 (statistical analysis)
[10] = 1.00% Tris NTA, Exp. 2 (statistical analysis)
[11] = 1.00% Tris NTA, Exp. 3 (statistical analysis)
[12] = 2.00% Tris NTA, Exp. 1 (statistical analysis)
[13] = 2.00% Tris NTA, Exp. 2 (statistical analysis)
[14] = 2.00% Tris NTA, Exp. 3 (statistical analysis)
[15] = […] Tris NTA, Exp. 1 (statistical analysis)
[16] = […] Tris NTA, Exp. 2 (statistical analysis)
[17] = […] Tris NTA, Exp. 3 (statistical analysis)

For “FtsA WT: wild-type E. coli actin-homologue FtsA, membrane anchor of FtsZ”, the “oligomeric state in solution” value [1] was “monomeric in solution”, the PCC (FtsZ [2]; [5]) was 0.58 and the PCC (FtsZ [2]; [6]) was 0.73. For the same substance, the “PCC, Mean” value (FtsZ [2]; 0.60% Tris NTA, n = 2 (WT), 3 (R286W), sd 0.07, 0.08, p-value 0.39) was 0.65, the PCC (FtsZ [2]; [7]) was 0.66 and the PCC (FtsZ [2]; 0.80% Tris NTA, Exp. 2 (statistical analysis)) was 0.70. For the same substance, the PCC (FtsZ [2]; [8]) was 0.68, the “PCC, Mean” value (FtsZ [2]; 0.80% Tris NTA, n = 3, 3, sd 0.0141 (WT), 0.0648 (R286W), p-value 0.61) was 0.68 and the PCC (FtsZ [2]; [9]) was 0.53. For the same substance, the PCC (FtsZ [2]; [10]) was 0.60, the PCC (FtsZ [2]; [11]) was 0.73 and the PCC (FtsZ [2]; 1.00% Tris NTA, Exp. 4 (statistical analysis)) was 0.53. For the same substance, the “PCC, Mean” value (FtsZ [2]; 1.00% Tris NTA, n = 4 (WT), 3 (R286W), sd 0.08, 0.0316, p-value 6.25E-02) was 0.60, the PCC (FtsZ [2]; [12]) was 0.12 and the PCC (FtsZ [2]; [13]) was 0.14. The PCC (FtsZ [2]; [14]) was 0.16, the “PCC, Mean” value (FtsZ [2]; 2.00% Tris NTA, n = 3, 3, sd 0.0143 (WT), 0.04 (R286W), p-value 1.59E-04) was 0.14 and the PCC (FtsZ [2]; [15]) was 0.16. For the same substance, the PCC (FtsZ [2]; [16]) was 0.0429, the PCC (FtsZ [2]; [17]) was 0.18 and the “PCC, Mean” value (FtsZ [2]; […] Tris NTA, n = 3, 3, sd 0.06 (WT), 0.02 (R286W), p-value 3.86E-04) was 0.13. For the same substance, the “Differential PCC” value (FtsZ [3]; [5]) was 0.51, the “Differential PCC” value (FtsZ [3]; [6]) was 0.47 and the “Differential PCC, Mean” value (FtsZ [3]; 0.60% Tris NTA, n = 2 (WT), 3 (R286W), sd 0.02, 0.057, p-value 0.67) was 0.49. For the same substance, the “Differential PCC” value (FtsZ [3]; [7]) was 0.49, the “Differential PCC” value (FtsZ [3]; [8]) was 0.47 and the “Differential PCC, Mean” value (FtsZ [3]; 0.80% Tris NTA, n = 3, 3, sd 0.05 (WT), 0.0749 (R286W), p-value 0.13) was 0.45. For the same substance, the “Differential PCC” value (FtsZ [3]; [9]) was 0.49, the “Differential PCC” value (FtsZ [3]; [10]) was 0.28 and the “Differential PCC” value (FtsZ [3]; [11]) was 0.23. For the same substance, the “Differential PCC, Mean” value (FtsZ [3]; 1.00% Tris NTA, n = 3, 3, sd 0.12 (WT), 0.0377 (R286W), p-value 5.89E-02) was 0.33, the “Differential PCC” value (FtsZ [3]; [12]) was 0.06 and the “Differential PCC” value (FtsZ [3]; [13]) was 0.14. For the same substance, the “Differential PCC” value (FtsZ [3]; [14]) was 0.0238, the “Differential PCC, Mean” value (FtsZ [3]; 2.00% Tris NTA, n = 3, 3, sd 0.0469 (WT), 0.04 (R286W), p-value 2.27E-03) was 0.0739 and the “Differential PCC” value (FtsZ [3]; [15]) was 0.05. For the same substance, the “Differential PCC” value (FtsZ [3]; [16]) was 0.035, the “Differential PCC” value (FtsZ [3]; [17]) was 0.12 and the “Differential PCC, Mean” value (FtsZ [3]; […] Tris NTA, n = 3, 3, sd 0.0371 (WT), 0.02 (R286W), p-value 5.70E-04) was 0.07. The “Off binding rate, mean” value ([4]; 0.1 µM FtsA + FtsN&Z) was 0.018 s, the “Off binding rate, mean” value ([4]; 0.1 µM FtsA + FtsN) was 0.032 s and the “Off binding rate, mean” value ([4]; 0.1 µM FtsA + FtsZ) was 0.0428 s. For the same substance, the “Off binding rate, mean” value ([4]; 0.1 µM FtsA alone) was 0.0544 s, the “Off binding rate, mean” value ([4]; 0.2 µM FtsA + FtsN&Z) was 0.0128 s and the “Off binding rate, mean” value ([4]; 0.2 µM FtsA + FtsN) was 0.026 s. For the same substance, the “Off binding rate, mean” value ([4]; 0.2 µM FtsA + FtsZ) was 0.0502 s, the “Off binding rate, mean” value ([4]; 0.2 µM FtsA alone) was 0.0443 s and the “Off binding rate, mean” value ([4]; 0.4 µM FtsA + FtsN&Z) was 0.0174 s. The “Off binding rate, mean” value ([4]; 0.4 µM FtsA + FtsN) was 0.0196 s, the “Off binding rate, mean” value ([4]; 0.4 µM FtsA + FtsZ) was 0.0502 s and the “Off binding rate, mean” value ([4]; 0.4 µM FtsA alone) was 0.0375 s. The “membrane exchange (off-rate)” value ([4]; 0.4 µM FtsA, p-value 6.73 × 10^−6) was 0.04 ± 0.01 s⁻¹, the “Off binding rate, mean” value ([4]; 0.8 µM FtsA + FtsN&Z) was 0.0278 s and the “Off binding rate, mean” value ([4]; 0.8 µM FtsA + FtsN) was 0.0277 s. The “Off binding rate, mean” value ([4]; 0.8 µM FtsA + FtsZ) was 0.0562 s, the “Off binding rate, mean” value ([4]; 0.8 µM FtsA alone) was 0.0396 s and the Off binding rate ([4]; Fig. S3i/S3j, 0.10 µM FtsA, replicate 1) was 0.0471 s⁻¹. It also gave an Off binding rate ([4]; Fig. S3i/S3j, 0.10 µM FtsA, replicate 2) of 0.024 s⁻¹, an Off binding rate ([4]; Fig. S3i/S3j, 0.10 µM FtsA, replicate 3) of 0.0306 s⁻¹ and an Off binding rate ([4]; Fig. S3i/S3j, 0.10 µM FtsA, replicate 4) of 0.0374 s⁻¹. The Off binding rate ([4]; Fig. S3i/S3j, 0.10 µM FtsA, summary value) was 0.0544 s⁻¹, the Off binding rate ([4]; Fig. S3i/S3j, 0.20 µM FtsA, summary value) was 0.0443 s⁻¹ and the Off binding rate ([4]; Fig. S3i/S3j, 0.40 µM FtsA, summary value) was 0.0375 s⁻¹. For the same substance, the Off binding rate ([4]; Fig. S3i/S3j, 0.80 µM FtsA, summary value) was 0.0396 s⁻¹, the Off binding rate ([4]; Fig. S3m, AMP PNP, 0.10 µM FtsA, replicate 1) was 0.0505 s⁻¹ and the Off binding rate ([4]; Fig. S3m, AMP PNP, 0.10 µM FtsA, replicate 2) was 0.0348 s⁻¹. The Off binding rate ([4]; Fig. S3m, AMP PNP, 0.20 µM FtsA, replicate 1) was 0.0493 s⁻¹, the Off binding rate ([4]; Fig. S3m, AMP PNP, 0.20 µM FtsA, replicate 2) was 0.0628 s⁻¹ and the Off binding rate ([4]; Fig. S3m, AMPPNP, 0.10 µM FtsA, summary value) was 0.04 s⁻¹. For the same substance, the Off binding rate ([4]; Fig. S3m, AMPPNP, 0.20 µM FtsA, summary value) was 0.06 s⁻¹, the Off binding rate ([4]; Fig. S3m, AMPPNP, 0.40 µM FtsA, summary value) was 0.08 s⁻¹ and the Off binding rate ([4]; Fig. S3m, AMPPNP, 0.80 µM FtsA, summary value) was 0.06 s⁻¹. The Off binding rate ([4]; Fig. S3m, ATP, 0.10 µM FtsA, summary value) was 0.05 s⁻¹, the Off binding rate ([4]; Fig. S3m, ATP, 0.20 µM FtsA, summary value) was 0.04 s⁻¹ and the Off binding rate ([4]; Fig. S3m, ATP, 0.40 µM FtsA, summary value) was 0.04 s⁻¹. It also gave an Off binding rate ([4]; Fig. S3m, ATP, 0.80 µM FtsA, summary value) of 0.04 s⁻¹, an Off binding rate ([4]; Fig. S3m, ATPgS, 0.10 µM FtsA, summary value) of 0.0254 s⁻¹ and an Off binding rate ([4]; Fig. S3m, ATPgS, 0.20 µM FtsA, summary value) of 0.0233 s⁻¹. It also gave an Off binding rate ([4]; Fig. S3m, ATPgS, 0.40 µM FtsA, summary value) of 0.0157 s⁻¹, an Off binding rate ([4]; Fig. S3m, ATPgS, 0.80 µM FtsA, summary value) of 0.0252 s⁻¹ and a membrane off-rate ([4]; in the presence of FtsZ) of about 0.05 s⁻¹. The “time bound relative to FtsZ monomers (times longer)” value ([4]; in the presence of FtsZ) was 2–4 times.

Reference: publication PMC9098913, “In vitro reconstitution of Escherichia coli divisome activation” (Nature Communications, 2022)
